Assay [1] deals with T1, NTF2L domain of G3BP1 (GFP-NTF2L) interaction with caprin 1 and USP10 (Homo sapiens, UniProt Q13283).
T1 construct: lysates expressing the NTF2L domain of G3BP1 (GFP-NTF2L); expressed in transfected cells; host or cells: HEK293T cells expressing GFP-NTF2L (lysate)
As to the kind of experiment: Coimmunoprecipitation of GFP-NTF2L with caprin 1 and USP10 in HEK293T lysates. The settings on record: 25 and 50 μM, GFP IP. The format is biochemical.

The subject of assay [2] is preformed stress granules in human iPSC-derived cortical neurons. The assay can be described thus: Dissolution of preformed stress granules in iPSC-derived cortical neurons. In kind it is cell-based. The note with it: 50 μM added after 30 min of 500 μM NaAsO2. The procedure: i3N iPSC clones were gifts from Michael E. Ward (National Institutes of Health, Bethesda, MD, USA) and were used to generate a G3BP1-mNeongreen knock-in iPSC line. iPS neurons were differentiated with a two-step protocol (predifferentiation and maturation) as previously described ([Wang et al., 2017]). For predifferentiation, iPSCs were incubated with 1 µg/ml doxycycline hyclate (Sigma-Aldrich) for 3 days at a density of 1.2 × 10^6 cells/well in six-well dishes coated with Matrigel in knockout DMEM (KO-DMEM)/F12 medium (Thermo Fisher Scientific) containing N2 supplement (Thermo Fisher Scientific), non-essential amino acids (NEAA; Thermo Fisher Scientific), GlutaMAX Supplement (Thermo Fisher Scientific), and Y-27632 ([…] Technologies). The medium was changed daily and Y-27632 was removed from day 2. For maturation, predifferentiated precursor cells were dissociated, counted, and subplated at 25 × 10^4 cells/ml on dishes coated with 50 μg/ml poly-L-ornithine in BrainPhys neuronal medium ([…] Technologies) containing N2 (Thermo Fisher Scientific), B-27, 20 ng/ml BDNF (PeproTech), 20 ng/ml GDNF (PeproTech), 500 µg/ml dibutyryl cyclic-AMP (Sigma-Aldrich), 200 nM L-ascorbic acid (Sigma-Aldrich), 1 µg/ml natural mouse laminin (Thermo Fisher Scientific), 1 μM Ara-C (Sigma-Aldrich), and 1 µg/ml doxycycline hyclate. Half-medium was changed every other day. […]

T1 sequence (Q13283 11-133 limits assumed): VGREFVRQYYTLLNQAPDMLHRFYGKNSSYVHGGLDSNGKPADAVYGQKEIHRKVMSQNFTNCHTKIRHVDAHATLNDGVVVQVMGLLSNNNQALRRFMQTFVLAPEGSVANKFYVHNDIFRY

Consider `CC(NC(=O)C(NC(=O)C(NC(=O)CCC(C)(C)C)C(C)(C)O)C(C)c1ccccc1)C(=O)N1CCCC1c1ccccc1` (centres unmarked) [G3Ib], for which the “interaction of NTF2L domain with caprin 1 and USP10” value in assay [1] is reported as “dose-dependent reduction”. In addition, the “dissolution of preformed stress granules” value in assay [2] is “nearly instantaneously dissolved stress granules”.
